{"source": "patent US9765118B2", "about": "“Pharmaceutical composition for cancer prevention and treatment containing peptide originated from C12orf59 protein as an active ingredient” (KOREA RESEARCH INSTITUTE OF BIOSCIENCE AND BIOTECHNOLOGY, priority 2010, dated 2017)", "key": {"colorectal cancer cells": {"test_system": "colorectal cancer cells", "test": "Cellular survival rate of colorectal cancer cells by absorbance (Experimental Example 4)", "assay_type": "cell-based", "conditions": "as in Example <3-2>", "experimental": "(§1) Particularly, 100 μl of poly-HEMA (Sigma) at the concentration of 12 mg/ml was loaded in 96-well plate, which stood in clean bench for 1 day, followed by drying. On the next day, the plate was coated with Poly-HEMA once again. Cells were distributed in the poly-HEMA coated plate by 100 μl/well (1×10^4 cells/well). At that time, serum-free medium was used. 6 days later, 10 μl of CCK-8 reagent (Dojindo cat. CK04-13) was added to each well, followed by reaction for 3 hours. Then, OD450 was measured.\nIn particular, a cellular survival rate was measured using absorbance in the same manner as in Example <3-2>."}, "SW480 cells [1]": {"test_system": "SW480 cells", "test": "Transwell invasion assay with peptide-treated SW480 cells", "assay_type": "cell-based, human", "conditions": "for invasion of cells reduced by: FIGS. 18 and 19, concentration not given; for invasion of colorectal cancer cells compared to the control: 50 μM, control DMSO 0.25%", "experimental": "(§2) Particularly, the porous membrane of 24-well transwell plate (8 μm pore size; Costar, USA) was coated with 100 μl of matrigel (BD Biosciences, USA) diluted in serum free medium at the concentration of […], which stood at room temperature for 1 hour for fixing. The lower part of the transwell plate was coated with 100 μl of collagen type I (Sigma) at the concentration of […]. The said collagen type I was used as a chemoattractant. 1×10^4 cells resuspended in serum free medium were distributed in the upper chamber of the said 24-well transwell plate, followed by culture at 37° C. with 5% CO2 for 48 hours, during which the cells were induced to migrate from the upper chamber to the lower chamber. The non-migrated cells were eliminated from the surface of the upper chamber. […] The excessive crystal violet solution was washed off with distilled water. The selected area (×100) was photographed. The number of the cells migrated was counted from 5 different selected areas. Then, mean value and standard error were obtained.\nSW480 colorectal cancer cells were treated with peptides originated from C12orf59, and effects of the peptids on invasion of the cells were analyzed."}, "[2]": {"test_system": "C8161 (human melanoma) cell line", "test": "Transwell invasion assay with C8161 cells in the presence of the peptide", "assay_type": "cell-based", "conditions": "24 h", "experimental": "Specifically, C8161 (human melanoma) cell line was cultured in DMEM containing 10% FBS, penicillin-streptomycin, L-glutamine, sodium pyruvate and glucose. C8161 cells (1×10^4) in the presence of the peptide were plated in serum-free medium on 24-well Transwell inserts (8 μm pore size; Costar, USA) coated with 25 μg of […] (BD Biosciences, USA). The underside of the insert was coated with 100 μl of collagen type I (Sigma) at the concentration of 5 μg/ml. […] The number of cells that had invaded was counted in five representative fields per insert. Then, mean value and standard deviation were obtained."}, "SW480sub cells": {"test_system": "SW480sub cells", "test": "Transwell matrigel invasion assay with peptide-treated SW480sub cells", "assay_type": "cell-based, human", "conditions": "for invasion reduced compared to vehicle control: peptide 50 μM; for colorectal cancer cell invasion reduced by / inhibitory effects on invasion: peptide 100 μg/ml, 48 hours", "experimental": "SW480sub was subpopulation of SW480 having high in vitro invasion and in vivo metastasis ability. The effect of each peptide on colorectal cancer cell invasion was analyzed using the said SW480sub. SW480sub cells were mixed with each peptide, followed by pre-incubation for 30 minutes.\nas §2"}, "SW480 cells [3]": {"test_system": "SW480 cells", "test": "Cell survivability under anchorage independent condition (polyHEMA, CCK-8, OD450) with peptides", "assay_type": "cell-based, human", "conditions": "6 days, serum-free", "experimental": "6 days later, cell survivability was measured by colorimetric technique under the anchorage independent condition.\nas §1"}}, "data": [{"substance": "NPEHCLTTDWVH (A_N-term)", "values": [{"measurement": "survival of colorectal cancer cells", "setting": "colorectal cancer cells", "result": "inhibitory effects on the survival of colorectal cancer cells in a concentration-dependent manner"}, {"measurement": "invasion of cells reduced by", "setting": "SW480 cells [1]", "result": 39, "unit": "%"}]}, {"substance": "EENCGNPEHCLTTDWVH (A_intact) [17 amino acid peptide from the extracellular domain of C12orf59 isoform 1]", "values": [{"measurement": "C8161 invasion reduced by", "setting": "[2]; 30 μg/ml", "result": 10, "unit": "%"}, {"measurement": "C8161 invasion reduced by", "setting": "[2]; 100 μg/ml", "result": 45, "unit": "%"}, {"measurement": "invasion reduced compared to vehicle control", "setting": "SW480sub cells", "result": 40, "unit": "%"}, {"measurement": "cell survivability reduced by", "setting": "SW480 cells [3]", "result": 82, "unit": "%"}]}, {"substance": "SWRPQPCCIS (B_C-term2)", "values": [{"measurement": "invasion reduced compared to vehicle control", "setting": "SW480sub cells", "result": 50, "unit": "%"}, {"measurement": "invasion of colorectal cancer cells compared to the control", "setting": "SW480 cells [1]", "result": "inhibited the invasion"}, {"measurement": "invasion of cells reduced by", "setting": "SW480 cells [1]", "result": 39, "unit": "%"}]}, {"substance": "NPEHCLT (A_Cen)", "values": [{"measurement": "invasion of cells reduced by", "setting": "SW480 cells [1]", "result": 49, "unit": "%"}]}, {"substance": "CLTTDWVH (A/B common)", "values": [{"measurement": "invasion of colorectal cancer cells compared to the control", "setting": "SW480 cells [1]", "result": "effects similar to those of A_C-term2 and B_C-term2"}]}, {"substance": "PCCISS (B_Cen2)", "values": [{"measurement": "invasion of colorectal cancer cells compared to the control", "setting": "SW480 cells [1]", "result": "superior inhibitory effects"}]}, {"substance": "EENCGNP (A_C-term2)", "values": [{"measurement": "invasion reduced compared to vehicle control", "setting": "SW480sub cells", "result": 46, "unit": "%"}, {"measurement": "colorectal cancer cell invasion reduced by / inhibitory effects on invasion", "setting": "SW480sub cells", "result": "about 99%"}, {"measurement": "invasion of colorectal cancer cells compared to the control", "setting": "SW480 cells [1]", "result": "inhibited the invasion"}, {"measurement": "invasion of cells reduced by", "setting": "SW480 cells [1]", "result": 38, "unit": "%"}]}, {"substance": "EENCGNPEHCLT (A_C-term1)", "values": [{"measurement": "invasion reduced compared to vehicle control", "setting": "SW480sub cells", "result": 48, "unit": "%"}, {"measurement": "colorectal cancer cell invasion reduced by / inhibitory effects on invasion", "setting": "SW480sub cells", "result": "about 92%"}, {"measurement": "survival of colorectal cancer cells", "setting": "colorectal cancer cells", "result": "inhibitory effects on the survival of colorectal cancer cells in a concentration-dependent manner"}, {"measurement": "invasion of cells reduced by", "setting": "SW480 cells [1]", "result": 48, "unit": "%"}]}, {"substance": "SWRPQPCCISSCCLT (B_C-term1)", "values": [{"measurement": "survival of colorectal cancer cells", "setting": "colorectal cancer cells", "result": "inhibitory effects on the survival of colorectal cancer cells in a concentration-dependent manner"}]}, {"substance": "PCCISSCCLTTDWVH (B_N-term)", "values": [{"measurement": "survival of colorectal cancer cells", "setting": "colorectal cancer cells", "result": "inhibitory effects on the survival of colorectal cancer cells in a concentration-dependent manner"}]}]}
